From patent EP0236948A2, “Novel compounds WK-142 and process for preparing the same” (KITASATO KENKYUSHO, priority 1986, dated 1987)
Non-standard residues stand in square brackets, D forms with d. Residues, ends and D or L forms follow the SMILES beside them. *: point of attachment. Sta = CC(C)C[C@H](N)[C@@H](O)CC(=O)O; Isovaleryl = CC(C)CC(=O)*

What was measured:
[1] = target: T1, pepsin from coats of pig's stomach (Sus scrofa, UniProt P00791); assay: Pepsin-inhibiting activity (method of Anson et al); assay type: biochemical; settings: pepsin from coats of pig's stomach (P7012, Sigma)
T1 construct: using pepsin from coats of pig's stomach (P7012 manufactured by Sigma Chemical Inc.); purchased Sigma Chemical Inc. P7012; host or cells: pig stomach mucosa
T1 sequence (P00791 60-385): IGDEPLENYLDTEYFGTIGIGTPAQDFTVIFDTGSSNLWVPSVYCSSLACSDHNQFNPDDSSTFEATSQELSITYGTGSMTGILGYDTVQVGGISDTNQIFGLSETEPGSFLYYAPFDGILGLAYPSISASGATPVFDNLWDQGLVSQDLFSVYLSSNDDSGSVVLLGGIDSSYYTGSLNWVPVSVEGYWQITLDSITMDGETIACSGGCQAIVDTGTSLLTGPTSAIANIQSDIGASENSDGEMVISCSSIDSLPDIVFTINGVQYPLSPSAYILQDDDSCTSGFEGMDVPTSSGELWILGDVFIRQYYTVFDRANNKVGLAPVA
Experimental: • (1) Pepsin-Inhibiting Activity: The pepsin-inhibiting activity was measured in terms of IC50 value according to the method of Anson et al [Journal of General Physiology 22, 79 (1938)] using pepsin from coats of pig's stomach (P7012 manufactured by Sigma Chemical Inc.).

[2] = system: renin obtained from pig's kidney; assay: Renin-inhibiting activity (method of Ikeda et al); assay type: biochemical

| Structure (SMILES) | IC50 [1] [µM] | IC50 [2] [µM] |
| --- | --- | --- |
| CC(C)CC(=O)NC(C(=O)NC(C(=O)NC(CC(C)C)C(O)CC(=O)NC(C)C(=O)NC(Cc1ccccc1)C(O)CC(=O)O)C(C)C)C(C)C (stereo not drawn) [compound A] | 0.01 |  |
| CC(C)CC(=O)N[C@H](C(=O)N[C@H](C(=O)N[C@@H](CC(C)C)[C@@H](O)CC(=O)N[C@@H](C)C(=O)N[C@@H](CC(C)C)[C@@H](O)CC(=O)O)C(C)C)C(C)C [pepstatin A] (Isovaleryl-VV[Sta]A[Sta]-OH) | 0.003 | 0.47 |
